Source: US20220235011A1, “PHTHALAZINONE COMPOUNDS AND USE THEREOF” (ST PHARM CO., LTD., priority 2019, published 2022)

Target: T1, Sirt6 (Homo sapiens, UniProt Q8N6T7)
T1 construct: purchased CycLex CY-1156V2
Assay: Measurement of Sirt6 Activity (CycLex Sirt6 Deacetylase Fluorometric Assay Kit)
Format: biochemical
Conditions: compound at 10 μM; fluorescence relative to the group without compound treatment (positive control group)
Procedure: LC-MS (ESI, m/z)=430.1 (M+H^+) Experimental Example 1: Measurement of Sirt6 Activity Compounds having Sirt6 activity were selected using a CycLex Sirt6 Deacetylase Fluorometric Assay Kit (cat. CY-1156V2) manufactured by CycLex.
When a fluorescent-attached acetylated lysine substrate is treated with Sirt6 enzyme, Sirt6 deacetylates the acetylated lysine of the substrate and lysylendopeptidase cleaves the C-terminal peptide bond connected to the lysine, by which fluorescence is emitted. The activity of a compound is calculated by observing the intensity of fluorescence when the compound is treated along with Sirt6 enzyme. When treating the compound, the compound aids in the activity of Sirt6 enzyme, so as to result in stronger fluorescence. Therefore, by calculating the ratio of the stronger fluorescence relative to the fluorescence emitted from the group without compound treatment (i.e., positive control group), relative activity can be calculated.
Activity evaluation was performed according to the following procedure.
The compound whose activity is to be evaluated was prepared by diluting in phosphate-buffered saline (PBS) to 10 times of the desired concentration (e.g., when measuring Sirt6 assay activity at 10 μM, the compound is prepared at a concentration of 100 μM in PBS). 1 μL of a 1 Ox Sirt6 assay buffer, 0.8 μL of 50× fluoro-substrate peptide, 1 μL of nicotinamide adenine dinucleotide (NAD), 1 μL of a developer and 4.2 μL of H2O were mixed to prepare mixtures equal to the number of samples, and 8 μL was dispensed into each Black 384 well. An additional 1 μL of PBS was added to each of a “no enzyme group” and a positive control group, and 1 μL of the compound diluted in PBS was added to an activity evaluation group. Recombinant Sirt6 was 1:8 diluted in a 1×Sirt6 assay buffer, and 1 μL thereof was added to each of the positive control group and the activity evaluation group. 1 μL of the 1×Sirt6 assay buffer was added to the “no enzyme group.” After reacting at room temperature for one hour, results were measured with a fluorescence spectrometer (excitation: 490±10 nm, emission: 530±10 nm) to confirm the presence or absence of Sirt6 activity and measure the intensity of the activity.

T1 sequence (Q8N6T7 whole entry): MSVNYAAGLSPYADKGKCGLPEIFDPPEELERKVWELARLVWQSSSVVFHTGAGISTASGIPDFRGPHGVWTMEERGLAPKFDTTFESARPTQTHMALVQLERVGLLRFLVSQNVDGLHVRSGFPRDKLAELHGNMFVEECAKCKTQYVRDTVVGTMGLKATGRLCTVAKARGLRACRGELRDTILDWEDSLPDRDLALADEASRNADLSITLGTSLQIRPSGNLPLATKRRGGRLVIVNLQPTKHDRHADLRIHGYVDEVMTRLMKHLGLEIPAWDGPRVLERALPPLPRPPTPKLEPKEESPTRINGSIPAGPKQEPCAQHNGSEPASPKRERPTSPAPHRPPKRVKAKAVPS

| Sirt6 Activity (% activity, 10 μM) [% activity] | SMILES |
| --- | --- |
| 171 | CC(C)/[N+]([O-])=C/c1cccc(-c2nn(-c3cc(F)cc(F)c3)c(=O)c3ccccc23)c1 [Example 31, (Z)-1-(3-(3-(3,5-Difluorophenyl)-4-oxo-3,4-dihydrophthalazin-1-yl)phenyl)-N-isopropyl Methanimine Oxide] |
| 124 | COc1ccc(-n2nc(-c3cccc(/C=[N+](\[O-])C(C)C)c3)c3ccccc3c2=O)cc1 [Example 32, (Z)—N-Isopropyl-1-(3-(3-(4-methoxyphenyl)-4-oxo-3,4-dihydrophthalazin-1-yl)phenyl) Methanimine Oxide] |
| 183 | CC(C)/[N+]([O-])=C/c1cccc(-c2nn(-c3ccc(F)c(Cl)c3)c(=O)c3ccccc23)c1 [Example 33, (Z)-1-(3-(3-(3-Chloro-4-fluorophenyl)-4-oxo-3,4-dihydrophthalazin-1-yl)phenyl)-N-isopropyl-methanimine Oxide] |
| 176 | CC(C)(C)/[N+]([O-])=C/c1cccc(-c2nn(-c3ccc(F)c(Cl)c3)c(=O)c3ccccc23)c1 [Example 34, (Z)—N-tert-Butyl-1-(3-(3-(3-chloro-4-fluorophenyl)-4-oxo-3,4-dihydrophthalazin-1-yl)phenyl) Methanimine Oxide] |
| 113 | O=c1c2ccccc2c(-c2cccc(/C=[N+](\[O-])Cc3ccccc3)c2)nn1-c1ccccc1 [Example 35, (Z)—N-Benzyl-1-(3-(4-oxo-3-phenyl-3,4-dihydrophthalazin-1-yl)phenyl)methanimine Oxide] |
| 142 | C/[N+]([O-])=C\c1ccc(-c2nn(-c3ccc(F)cc3)c(=O)c3ccccc23)cc1 [Example 36, (E)-1-(4-(3-(4-Fluorophenyl)-4-oxo-3,4-dihydrophthalazin-1-yl)phenyl)-N-methylmethanimine Oxide] |
| 143 | C/[N+]([O-])=C\c1ccc(-c2nn(-c3ccc(F)cc3)c(=O)c3ccccc23)c(F)c1 [Example 38, (E)-1-(3-Fluoro-4-(3-(4-fluorophenyl)-4-oxo-3,4-dihydrophthalazin-1-yl)phenyl)-N-methylmethanimine Oxide] |
| 106 | CC(C)/[N+]([O-])=C\c1ccc(-c2nn(-c3ccc(F)cc3)c(=O)c3ccccc23)c(F)c1 [Example 39, (E)-1-(3-Fluoro-4-(3-(4-fluorophenyl)-4-oxo-3,4-dihydrophthalazin-1-yl)phenyl)-N-isopropylmethanimine Oxide] |
| 160 | C/[N+]([O-])=C/c1ccccc1-c1nn(-c2ccc(F)cc2)c(=O)c2ccccc12 [Example 40, (Z)-1-(2-(3-(4-Fluorophenyl)-4-oxo-3,4-dihydrophthalazin-1-yl)phenyl)-N-methylmethanimine Oxide] |
| 129 | CC(C)/[N+]([O-])=C/c1ccccc1-c1nn(-c2ccc(F)cc2)c(=O)c2ccccc12 [Example 41, (Z)-1-(2-(3-(4-Fluorophenyl)-4-oxo-3,4-dihydrophthalazin-1-yl)phenyl)-N-isopropyl Methanimine Oxide] |
| 161 | CC(C)(C)/[N+]([O-])=C/c1ccccc1-c1nn(-c2ccc(F)cc2)c(=O)c2ccccc12 [Example 42, (Z)—N-tert-Butyl-1-(2-(3-(4-fluorophenyl)-4-oxo-3,4-dihydrophthalazin-1-yl)phenyl)methanimine Oxide] |
| 205 | CC(C)(C)/[N+]([O-])=C/c1cccc(-c2nn(-c3ccc(F)cc3)c(=O)c3ccccc23)c1 [Example 43, (Z)—N-tert-Butyl-1-(3-(3-(4-fluorophenyl)-4-oxo-3,4-dihydrophthalazin-1-yl)phenyl)methanimine Oxide] |
| 142 | O=c1c2ccccc2c(-c2cccc(/C=[N+](\[O-])Cc3ccccc3)c2)nn1-c1ccc(F)cc1 [Example 44, (Z)—N-Benzyl-1-(3-(3-(4-fluorophenyl)-4-oxo-3,4-dihydrophthalazin-1-yl)phenyl)methanimine Oxide] |
| 195 | C/[N+]([O-])=C/c1ccc(-c2nn(-c3ccc(F)cc3)c(=O)c3ccccc23)s1 [Example 45, (Z)-1-(5-(3-(4-Fluorophenyl)-4-oxo-3,4-dihydrophthalazin-1-yl)thiophen-2-yl)-N-methylmethanimine Oxide] |
| 154 | CC(C)/[N+]([O-])=C/c1ccc(-c2nn(-c3ccc(F)cc3)c(=O)c3ccccc23)s1 [Example 46, (Z)-1-(5-(3-(4-Fluorophenyl)-4-oxo-3,4-dihydrophthalazin-1-yl)thiophen-2-yl)-N-isopropylmethanimine Oxide] |
| 132 | CC(C)(C)/[N+]([O-])=C/c1ccc(-c2nn(-c3ccc(F)cc3)c(=O)c3ccccc23)s1 [Example 47, (Z)—N-tert-Butyl-1-(5-(3-(4-fluorophenyl)-4-oxo-3,4-dihydrophthalazin-1-yl)thiophen-2-yl)methanimine Oxide] |
| 107 | CC(C)/[N+]([O-])=C/c1ccc(-c2nn(-c3ccc(F)cc3)c(=O)c3ccccc23)o1 [Example 48, (Z)-1-(5-(3-(4-Fluorophenyl)-4-oxo-3,4-dihydrophthalazin-1-yl)furan-2-yl)-N-isopropylmethanimine Oxide] |
| 107 | COc1ccc(-c2nn(-c3ccc(F)cc3)c(=O)c3ccccc23)cc1/C=[N+](\[O-])C(C)(C)C [Example 49, (Z)—N-tert-Butyl-1-(5-(3-(4-fluorophenyl)-4-oxo-3,4-dihydrophthalazin-1-yl)-2-methoxyphenyl)methan Imine Oxide] |
| 105 | COc1ccc(-c2nn(-c3ccc(F)cc3)c(=O)c3ccccc23)cc1/C=[N+](\[O-])Cc1ccccc1 [Example 50, (Z)—N-Benzyl-1-(5-(3-(4-fluorophenyl)-4-oxo-3,4-dihydrophthalazin-1-yl)-2-methoxyphenyl)methanimine Oxide] |
| 139 | C/[N+]([O-])=C/c1cc(-c2nn(-c3ccc(F)cc3)c(=O)c3ccccc23)ccc1F [Example 51, (Z)-1-(2-Fluoro-5-(3-(4-fluorophenyl)-4-oxo-3,4-dihydrophthalazin-1-yl)phenyl)-N-methylmethanimine Oxide] |
| 172 | CC(C)/[N+]([O-])=C/c1cc(-c2nn(-c3ccc(F)cc3)c(=O)c3ccccc23)ccc1F [Example 52, (Z)-1-(2-Fluoro-5-(3-(4-fluorophenyl)-4-oxo-3,4-dihydrophthalazin-1-yl)phenyl)-N-isopropylmethanimine Oxide] |
| 172 | CC(C)(C)/[N+]([O-])=C/c1cc(-c2nn(-c3ccc(F)cc3)c(=O)c3ccccc23)ccc1F [Example 53, (Z)—N-tert-Butyl-1-(2-fluoro-5-(3-(4-fluorophenyl)-4-oxo-3,4-dihydrophthalazin-1-yl)phenyl) Methanimine Oxide] |
| 161 | O=c1c2ccccc2c(-c2ccc(F)c(/C=[N+](\[O-])Cc3ccccc3)c2)nn1-c1ccc(F)cc1 [Example 54, (Z)—N-Benzyl-1-(2-fluoro-5-(3-(4-fluorophenyl)-4-oxo-3,4-dihydrophthalazin-1-yl)phenyl) Methanimine Oxide] |
| 151 | C/[N+]([O-])=C/c1ccc(F)c(-c2nn(-c3ccc(F)cc3)c(=O)c3ccccc23)c1 [Example 55, (Z)-1-(4-Fluoro-3-(3-(4-fluorophenyl)-4-oxo-3,4-dihydrophthalazin-1-yl)phenyl)-N-methylmethanimine Oxide] |
| 115 | CC(C)/[N+]([O-])=C/c1ccc(F)c(-c2nn(-c3ccc(F)cc3)c(=O)c3ccccc23)c1 [Example 56, (Z)-1-(4-Fluoro-3-(3-(4-fluorophenyl)-4-oxo-3,4-dihydrophthalazin-1-yl)phenyl)-N-isopropylmethanimine Oxide] |
| 149 | CC(C)(C)/[N+]([O-])=C/c1ccc(F)c(-c2nn(-c3ccc(F)cc3)c(=O)c3ccccc23)c1 [Example 57, (Z)—N-tert-Butyl-1-(4-fluoro-3-(3-(4-fluorophenyl)-4-oxo-3,4-dihydrophthalazin-1-yl)phenyl) Methanimine Oxide] |

Same assay, conditions: compound at 10 μM; fluorescence relative to the group without compound treatment (positive control group); 10 µM

| Sirt6 Activity (% activity, 10 μM) [% activity] | SMILES |
| --- | --- |
| 126 | CC(C)/[N+]([O-])=C/c1cccc(-c2nn(-c3ccc(F)cc3)c(=O)c3ccccc23)c1 [Example 37, (Z)-1-(3-(3-(4-Fluorophenyl)-4-oxo-3,4-dihydrophthalazin-1-yl)phenyl)-N-isopropyl methanimine Oxide] |
